Reference: patent EP4342467A1, “KU INHIBITORS FOR USE IN TUMOR THERAPY” (Masarykova Univerzita, priority 2022, dated 2024)
Read-outs that look alike come from different tables or passages of the source.

Legend:
Ku complex = Ku complex (Homo sapiens, UniProt P12956+P13010); test: microwell protein induced fluorescent enhancement assay (mwPIFE) of Ku-DNA binding; conditions: for IC50: estimated from the 0.5 to 8 µM concentration range, read-out: Inhibition of Ku-DNA binding IC50; for remaining activity at 8 µM: read-out: % binding at 8 µM (100% = 0.5% DMSO)
Ku complex, sequence (P12956 whole entry): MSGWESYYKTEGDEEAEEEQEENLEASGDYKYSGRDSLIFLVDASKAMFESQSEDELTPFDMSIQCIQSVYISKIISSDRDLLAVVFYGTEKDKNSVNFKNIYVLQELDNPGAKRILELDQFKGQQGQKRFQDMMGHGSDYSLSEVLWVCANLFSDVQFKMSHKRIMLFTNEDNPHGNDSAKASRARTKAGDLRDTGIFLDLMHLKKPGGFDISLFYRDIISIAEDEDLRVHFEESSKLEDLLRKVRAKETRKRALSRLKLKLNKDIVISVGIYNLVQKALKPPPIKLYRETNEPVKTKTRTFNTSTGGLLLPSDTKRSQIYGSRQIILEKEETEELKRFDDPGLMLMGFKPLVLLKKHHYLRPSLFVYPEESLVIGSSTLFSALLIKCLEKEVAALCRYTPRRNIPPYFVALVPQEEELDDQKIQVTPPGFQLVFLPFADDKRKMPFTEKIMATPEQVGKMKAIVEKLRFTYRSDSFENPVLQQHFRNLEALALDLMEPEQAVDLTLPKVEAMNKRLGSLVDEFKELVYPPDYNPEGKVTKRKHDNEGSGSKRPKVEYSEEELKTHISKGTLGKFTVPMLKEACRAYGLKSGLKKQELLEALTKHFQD
Ku complex, sequence (P13010 whole entry): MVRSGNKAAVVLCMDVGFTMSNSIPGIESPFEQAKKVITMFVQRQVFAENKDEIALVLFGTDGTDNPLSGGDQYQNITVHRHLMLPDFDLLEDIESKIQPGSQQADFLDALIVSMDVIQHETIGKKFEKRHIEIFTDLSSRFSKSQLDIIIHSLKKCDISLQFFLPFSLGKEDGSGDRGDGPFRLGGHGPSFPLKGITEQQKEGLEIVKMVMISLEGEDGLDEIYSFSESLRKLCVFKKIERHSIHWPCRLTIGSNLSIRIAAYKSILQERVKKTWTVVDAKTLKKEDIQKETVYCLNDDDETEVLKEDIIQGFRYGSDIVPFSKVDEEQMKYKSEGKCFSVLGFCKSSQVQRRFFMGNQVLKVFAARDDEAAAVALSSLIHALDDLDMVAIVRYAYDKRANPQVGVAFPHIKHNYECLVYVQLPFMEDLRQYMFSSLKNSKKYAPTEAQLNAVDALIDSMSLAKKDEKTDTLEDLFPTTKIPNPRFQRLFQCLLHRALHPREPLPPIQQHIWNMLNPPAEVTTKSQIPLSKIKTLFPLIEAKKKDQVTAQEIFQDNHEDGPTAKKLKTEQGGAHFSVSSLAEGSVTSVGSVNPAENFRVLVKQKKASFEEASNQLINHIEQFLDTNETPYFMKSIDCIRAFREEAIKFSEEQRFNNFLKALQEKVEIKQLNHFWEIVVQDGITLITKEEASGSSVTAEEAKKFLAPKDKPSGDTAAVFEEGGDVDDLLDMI
Experimental: A rapid method for detecting protein-nucleic acid interactions by protein induced fluorescence enhancement. Sci Rep 6, 39653. mwPIFE is based on enhanced fluorescence of cyanine fluorophores attached to nucleic acid probes upon protein binding. […] The probe was immobilized in 96 well plates through biotin (Btn) attached to one end of DNA and incubated with purified Ku complex (0.5 pmol) in 50 µl of binding buffer (10 mM calcium acetate, 60 mM potassium acetate, 20 mM TRISacetate pH 7.9, 100 mg BSA/1). Ku-DNA binding was calculated from altered fluorescence measured by a fluorescence plate reader (Valuchova et al., 2016). […]

HCT116 cells [1] = test: C-circle assay (extrachromosomal circular telomeric DNA); assay type: cell-based, human; conditions: C-circle assay in HCT116 cells treated for 3 to 7 days
Experimental: HCT116 cell were incubated for 3, 5 or 7 days in McCoy's 5a medium with 10% Fetal Bovine Serum, 2 mM L-Glutamine and Penicilin/Streptomycin 200 U/l each and supplemented with Compound 1-9. C-circle assay that utilizes rolling circle amplification of circular DNA by φ29 polymerase was performed as described in Henson, J.D., Lau, L.M., Koch, S., Martin La Rotta, N., Dagg, R.A., and Reddel, R.R. (2017). The C-Circle Assay for alternative-lengthening-of-telomeres activity. Methods 114, 74-84. Amplified circular telomeric DNA was detected by dot blot hybridization with P^32-labeled telomeric DNA oligonucleotide (5'-[…]-3' (SEQ ID NO: 6)) (Figure 4).

HCT116 cells [2] = test: cell proliferation, ATPlite assay; assay type: cell-based; conditions: Homo sapiens, HCT-116, 120 h, read-out: Inhibition of cell proliferation IC50
Experimental: HCT116, U2OS and HeLa cells were grown in McCoy's 5a medium supplemented with 10% Fetal Bovine Serum, 2 mM L-Glutamine and Penicilin/Streptomycin 200 U/l each in the presence of Compound 1-9. After growth at 37 °C, 5% CO2 for 3 days, monolayer of cells was detached using TrypLE Express (Gibco), cells were counted using 0.4% trypan blue stain and hemocytometer. […] Number of viable cells was estimated using ATPlite kit (Perkin Elmer).

HCT116 = test: combination with BIBR1532, relative growth by ATPlite; assay type: cell-based, human; conditions: HCT116; 10 µM BIBR1532, 0.25 µM iKU-1 or their combination; 4 days
Experimental: 10,000 HCT116 cells were seeded in 100 µl of McCoy's 5a medium supplemented with 10% Fetal Bovine Serum, 2 mM L-Glutamine and Penicilin/Streptomycin 200 U/l for 1 day in 96well plate and treated with 10 µM BIBR1532, 0.25 µM of iKU-1 or their combination for 4 days. Number of viable cells was measured by ATPlite kit (Perkin Elmer) and normalized to the treatment with 0.5% DMSO. The results presented in Table 2 show a synergistic effect of iKU-1 and BIBR1532 on the growth of HCT116 tumor cell line. Values in the table indicate relative growth assessed by ATPlite kit compared to the control sample treated with 0.5% DMSO after 4 days of treatment.

U2OS = test: as above; assay type: cell-based, human; conditions: 10 µM BIBR1532, 0.25 µM iKU-1 or their combination, 4 days
HeLa = test: as above; assay type: cell-based, human; conditions: 10 µM BIBR1532, 0.25 µM iKU-1 or their combination, 4 days
A2780 = test: growth of A2780 cells by ATPlite, alone and in combination with Bleomycin; assay type: cell-based, human; conditions: A2780; 0.025 µg/ml Bleomycin, 0.5 µM iKU-1 or their combination; 7 days
Experimental: 2,000 A2780 cells were seeded in 100 µl of RPMI 1640 medium with 300 mg/l L-Glutamine and 10% Fetal Bovine Serum for 1 day in 96well plate and treated by 0.025 µg/ml of Bleomycin, 0.5 µM of iKu-1 or their combination for 7 days. Number of viable cells was measured by ATPlite kit (Perkin Elmer) and normalized to the treatment with 0.5% DMSO.
Values in the table indicate relative growth assessed by ATPlite kit compared to the control sample treated with 0.5% DMSO after 7 days of treatment.
2,000 SKOV3 and A2780 cells were seeded in 100 µl of McCoy's 5a or RPMI 1640 media, respectively, for one day and then incubated with iKU-1 for 7 days. Number of viable cells was measured by ATPlite kit (Perkin Elmer) and normalized to the treatment with 0.5% DMSO.

[3] = literature (Weterings et al. 2016); cited from earlier work
[4] = mwPIFE, 8 µM inhibitor compared to 0.5% DMSO
[5] = ATPlite assay in HCT116 cells treated for 5 days

Molecule | IC50 (Ku complex; mwPIFE) [µM] | remaining activity at 8 µM (Ku complex) [%] | Concentration inducing c-circle formation (HCT116 cells [1]) [µM] | IC50 (HCT116 cells [2]) [µM] | other results
O=C(Nc1nc(-c2ccccc2)cs1)c1cncc(Br)c1 [Compound 8] | > 8 | 71 | 50 | > 20 | 
O=C(Nc1nc(-c2ccccn2)cs1)c1ccc(NC2CC2)nc1 [Compound 4] | 7 | 47 | 10 | 8 | 
O=C(Nc1nc(-c2cccnc2)cs1)c1cncc(Br)c1 [Compound 7] | > 8 | 55 | 50 | > 20 | 
C/C(=C\C(=O)Nc1ccccc1C(=O)O)c1ccc2ccccc2c1 [BIBR1532, reference compound] |  |  |  |  | relative growth assessed by ATPlite kit compared to the control sample treated with 0.5% DMSO (HCT116): 0.88; relative growth assessed by ATPlite kit compared to the control sample treated with 0.5% DMSO (U2OS): 0.88; relative growth assessed by ATPlite kit compared to the control sample treated with 0.5% DMSO (HeLa): 0.92
O=C(Nc1nc(-c2ccccn2)cs1)c1cccnc1 [Compound 2] |  |  | 5 |  | remaining activity at 8 µM (Ku complex; [4]): 97%; IC50 (HCT116 cells [2]; [5]): < 5 µM
O=C(Nc1nc(-c2ccccn2)cs1)c1cccc(Br)c1 [Compound 3] |  |  |  |  | remaining activity at 8 µM (Ku complex; [4]): 76%; IC50 (HCT116 cells [2]; [5]): < 5 µM
Cc1ccc(C(=O)Nc2nc(-c3ccccc3)cs2)cc1 [Compound 9] | > 8 |  | 20 |  | remaining activity at 8 µM (Ku complex; [4]): 99%; IC50 (HCT116 cells [2]; [5]): 9 µM
Bleomycin [reference compound] |  |  |  |  | relative growth assessed by ATPlite kit compared to the control sample treated with 0.5% DMSO (A2780): 1.00
CC(=O)Nc1ccc(-c2csc(NC(=O)c3cncc(Br)c3)n2)cc1 [Compound 6] | > 8 | 55 |  | 20 | 
CC(=O)NCCc1ccc(-c2csc(NC(=O)c3cncc(Br)c3)n2)cc1 [Compound 5] | > 8 | 75 |  | < 5 | 
COc1ccc(CCNc2ncc3c(=O)n(-c4cccc(F)c4)c(=O)[nH]c3n2)cc1OC [STL127705] |  |  |  |  | concentration conferring enhanced sensitivity to irradiation [3]: 20 to 30 µM
